# Molecular target: T1, MLK1 (GST-MLK1KD) (Homo sapiens, UniProt P80192)
# T1 construct: 1 μg/mL of baculoviral GST-MLK1KD (Lot 23.1A); GST; made in house
# Assay: Mixed Lineage Kinase-1 inhibition assay (32P, myelin basic protein)
# Format: biochemical
# Details: 300 nM compound; 60 μM ATP; read-out: MLK-1 % inhibition (@300 nM)
# Method: The activity assay for MLK1 was performed using the 96-well Millipore Multiscreen plate format. Each 50-μL assay mixture contained 50 mM HEPES (pH 7.0), 1 mM EGTA, 10 mM MgCl2, 1 mM DTT, 25 mM β-glycerophosphate, 60 μM ATP, 1 μCi [γ-^32P]ATP, 0.1% BSA, 500 μg/mL myelin basic protein (Upstate #13-104), 2% DMSO, various concentrations of test compound, and 1 μg/mL of baculoviral GST-MLK1KD (Lot 23.1A). Samples were incubated for 15 minutes at 37° C. The reaction was stopped by adding ice-cold 50% trichloroacetic acid (TCA) and the proteins were allowed to precipitate for 30 minutes at 4° C. The plates were then washed with ice-cold 25% TCA. Supermix scintillation cocktail was added, and the plates were allowed to equilibrate for 1-2 hours prior to counting in the Wallac MicroBeta 1450 Plus scintillation counter.
# T1 sequence (P80192 144-412 limits assumed, species assumed): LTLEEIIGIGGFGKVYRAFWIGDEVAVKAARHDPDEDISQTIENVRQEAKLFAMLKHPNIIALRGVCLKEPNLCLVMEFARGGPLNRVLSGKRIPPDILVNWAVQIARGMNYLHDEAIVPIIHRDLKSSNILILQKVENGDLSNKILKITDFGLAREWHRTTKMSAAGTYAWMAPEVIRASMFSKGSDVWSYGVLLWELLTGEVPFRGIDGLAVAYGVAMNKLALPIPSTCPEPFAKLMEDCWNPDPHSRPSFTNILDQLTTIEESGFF
row,inhibition at 0.3 µM [%],Structure (SMILES)
1,67,"O=c1[nH]nc(-c2cc3ccccc3o2)c2[nH]c3ccc(O)cc3c12 [Example 4q, 4-Benzofuran-2-yl-8-hydroxy-2,5-dihydro-pyridazino[4,5-b]indol-1-one]"

# Same assay, conditions: 1 uM compound; 60 μM ATP; read-out: MLK-1 % inhibition @ 1 uM
row,Structure (SMILES),inhibition at 1 µM [%]
1,"O=c1[nH]nc(-c2ccccn2)c2[nH]c3ccccc3c12 [Example 4b, 4-Pyridin-2-yl-2,5-dihydro-pyridazino[4,5-b]indol-1-one]",0
2,"Cn1c2ccccc2c2c(=O)[nH]nc(-c3cc4ccccc4s3)c21 [Example 11b, 4-Benzo[b]thiophen-2-yl-5-methyl-2,5-dihydro-pyridazino[4,5-b]indol-1-one]",0
3,"O=c1[nH]nc(-c2nccs2)c2[nH]c3ccccc3c12 [Example 4f, 4-Thiazo-2-yl-2,5-dihydro-pyridazino[4,5-b]indol-1-one]",5
4,"Cn1c2ccccc2c2c(=O)[nH]nc(-c3ccc4ccccc4c3)c21 [Example 11c, 5-Methyl-4-naphthalen-2-yl-2,5-dihydro-pyridazino[4,5-b]indol-1-one]",0
5,"O=c1[nH]nc(-c2cc3ccccc3s2)c2c1[nH]c1ccccc12 [Example 14b, 1-Benzo[b]thiophen-2-yl-3,5-dihydro-pyridazino[4,5-b]indol-4-one]",0
6,"O=c1[nH]nc(-c2cccnc2)c2[nH]c3ccccc3c12 [Example 4c, 4-Pyridin-3-yl-2,5-dihydro-pyridazino[4,5-b]indol-1-one]",0

# The remaining lines, values ahead:
row,inhibition at 1 µM [%],Structure (SMILES)
1,0,"O=c1[nH]nc(-c2cc3ccccc3o2)c2[nH]c3cc(OCc4ccccc4)ccc3c12 [Example 4p, 4-Benzofuran-2-yl-7-benzyloxy-2,5-dihydro-pyridazino[4,5-b]indol-1-one]"
2,19,"Cn1c2ccccc2c2c(=O)[nH]nc(-c3cc4ccccc4o3)c21 [Example 11a, 4-Benzofuran-2-yl-5-methyl-2,5-dihydro-pyridazino[4,5-b]indol-1-one]"
3,73,"O=c1[nH]nc(-c2cc3ccccc3o2)c2[nH]c3ccc(OCc4ccccc4)cc3c12 [Example 4o, 4-Benzofuran-2-yl-8-benzyloxy-2,5-dihydro-pyridazino[4,5-b]indol-1-one]"
4,41,"O=c1[nH]nc(-c2cc3ccccc3o2)c2[nH]c3ccccc3c12 [Example 4k, 4-Benzofuran-2-yl-2,5-dihydro-pyridazino[4,5-b]indol-1-one]"
5,10,"Cc1ccc(-c2n[nH]c(=O)c3c2[nH]c2ccccc23)o1 [Example 4e, 4-(5-Methyl-furan-2-yl)-2,5-dihydro-pyridazino[4,5-b]indol-1-one]"
6,46,"O=c1[nH]nc(-c2cc3ccccc3o2)c2[nH]c3cc4c(cc3c12)OCO4 [Example 4m, 8-Benzofuran-2-yl-6,9-dihydro-1,3-dioxa-6,7,9-triaza-cyclopenta[b]fluoren-5-one]"

# Same assay, conditions: 60 μM ATP; read-out: MLK-1 IC50
row,IC50 [µM],Structure (SMILES)
1,0.138,"O=c1[nH]nc(-c2cc3ccccc3o2)c2[nH]c3ccc(O)cc3c12 [Example 4q, 4-Benzofuran-2-yl-8-hydroxy-2,5-dihydro-pyridazino[4,5-b]indol-1-one]"
2,0.381,"O=c1[nH]nc(-c2cc3ccccc3o2)c2[nH]c3ccc(OCc4ccccc4)cc3c12 [Example 4o, 4-Benzofuran-2-yl-8-benzyloxy-2,5-dihydro-pyridazino[4,5-b]indol-1-one]"
3,2.66,"O=c1[nH]nc(-c2cc3ccccc3o2)c2[nH]c3ccccc3c12 [Example 4k, 4-Benzofuran-2-yl-2,5-dihydro-pyridazino[4,5-b]indol-1-one]"

# Molecular target: T2, vascular endothelial growth factor receptor-2 (VEGFR2) cytoplasmic domain (Homo sapiens, UniProt P35968)
# T2 construct: recombinant baculovirus-expressed vascular endothelial growth factor receptor-2 (VEGFR2) cytoplasmic domain; made in house
# Assay: Vascular Endothelial Growth Factor Receptor-2 kinase inhibition assay (TRF)
# Format: biochemical
# Details: 300 nM compound; 40 μM ATP; read-out: VEGFR-2 % inhibition @ 300 nM
# Method: Compounds were tested for their ability to inhibit the kinase activity of recombinant baculovirus-expressed vascular endothelial growth factor receptor-2 (VEGFR2) cytoplasmic domain using the time-resolved fluorescence (TRF) detection system. IC50s were conducted in 96-well Costar high binding plates (Corning Costar #3922, Corning, N.Y.). Briefly, each 96-well plate was coated with 100 μL/well of 10 μg/mL recombinant substrate, glutathione S-transferase-phospholipase C-γ fusion protein (GST-PLCγ Lot # 3P5.1A), in Tris-buffered saline (TBS). The VEGFR2 assay mixture (total volume=100 μL/well) consisting of 20 mM HEPES, pH 7.2, 40 μM ATP, 10 mM MnCl2, 0.1% bovine serum albumin (BSA), and test compound (diluted in DMSO; 2.5% DMSO final in assay) was then added to the assay plate. Enzyme (30 ng/mL VEGFR2 Lot # V2g-2.1A) was added and the reaction was allowed to proceed at 37° C. for 15 minutes. Detection of the phosphorylated product was performed by adding 100 μL/well of Eu-N1 labeled PY100 antibody (PerkinElmer Life Sciences #AD0160, Boston, Mass.) diluted 1:5000 in 0.25% BSA in TBS containing 0.05% Tween-20 (TBS-T). Incubation at 37° C. then proceeded for 1 hour, followed by addition of 100 μL enhancement solution (PerkinElmer Life Sciences #1244-105, Boston, Mass.). The plate was gently agitated and after 30 minutes, the fluorescence of the resulting solution was measured using the PerkinElmer EnVision 2100 (or 2102) multilabel plate reader.
# T2 sequence (P35968 786-1356 limits assumed, species assumed): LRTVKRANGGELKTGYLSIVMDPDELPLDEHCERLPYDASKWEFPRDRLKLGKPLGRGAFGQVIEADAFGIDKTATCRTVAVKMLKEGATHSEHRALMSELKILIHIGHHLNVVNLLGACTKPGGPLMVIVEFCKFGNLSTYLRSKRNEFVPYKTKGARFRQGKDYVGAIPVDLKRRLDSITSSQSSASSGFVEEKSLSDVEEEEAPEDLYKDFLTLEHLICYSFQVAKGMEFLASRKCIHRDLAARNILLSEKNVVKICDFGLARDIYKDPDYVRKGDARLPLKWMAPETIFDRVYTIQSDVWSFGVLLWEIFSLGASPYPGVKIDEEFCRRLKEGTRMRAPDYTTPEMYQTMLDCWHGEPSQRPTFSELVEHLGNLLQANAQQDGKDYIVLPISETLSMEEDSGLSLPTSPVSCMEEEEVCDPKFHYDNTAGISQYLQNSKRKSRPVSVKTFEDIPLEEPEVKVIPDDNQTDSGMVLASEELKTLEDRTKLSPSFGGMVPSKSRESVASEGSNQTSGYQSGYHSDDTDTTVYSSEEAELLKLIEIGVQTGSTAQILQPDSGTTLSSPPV
row,Structure (SMILES),inhibition at 0.3 µM [%]
1,"O=c1[nH]nc(-c2ccccn2)c2[nH]c3ccccc3c12 [Example 4b, 4-Pyridin-2-yl-2,5-dihydro-pyridazino[4,5-b]indol-1-one]",7
2,"Cn1c2ccccc2c2c(=O)[nH]nc(-c3cc4ccccc4s3)c21 [Example 11b, 4-Benzo[b]thiophen-2-yl-5-methyl-2,5-dihydro-pyridazino[4,5-b]indol-1-one]",0
3,"O=c1[nH]nc(-c2nccs2)c2[nH]c3ccccc3c12 [Example 4f, 4-Thiazo-2-yl-2,5-dihydro-pyridazino[4,5-b]indol-1-one]",0
4,"Cn1c2ccccc2c2c(=O)[nH]nc(-c3ccc4ccccc4c3)c21 [Example 11c, 5-Methyl-4-naphthalen-2-yl-2,5-dihydro-pyridazino[4,5-b]indol-1-one]",3
5,"O=c1[nH]nc(-c2cc3ccccc3s2)c2c1[nH]c1ccccc12 [Example 14b, 1-Benzo[b]thiophen-2-yl-3,5-dihydro-pyridazino[4,5-b]indol-4-one]",3
6,"O=c1[nH]nc(-c2cccnc2)c2[nH]c3ccccc3c12 [Example 4c, 4-Pyridin-3-yl-2,5-dihydro-pyridazino[4,5-b]indol-1-one]",14

# Further lines, results first:
row,inhibition at 0.3 µM [%],Structure (SMILES)
1,14,"O=c1[nH]nc(-c2cc3ccccc3o2)c2[nH]c3cc(OCc4ccccc4)ccc3c12 [Example 4p, 4-Benzofuran-2-yl-7-benzyloxy-2,5-dihydro-pyridazino[4,5-b]indol-1-one]"
2,21,"O=c1[nH]nc(-c2cc3ccccc3o2)c2[nH]c3ccc(O)cc3c12 [Example 4q, 4-Benzofuran-2-yl-8-hydroxy-2,5-dihydro-pyridazino[4,5-b]indol-1-one]"
3,0,"Cn1c2ccccc2c2c(=O)[nH]nc(-c3cc4ccccc4o3)c21 [Example 11a, 4-Benzofuran-2-yl-5-methyl-2,5-dihydro-pyridazino[4,5-b]indol-1-one]"
4,10,"O=c1[nH]nc(-c2cc3ccccc3o2)c2[nH]c3ccc(OCc4ccccc4)cc3c12 [Example 4o, 4-Benzofuran-2-yl-8-benzyloxy-2,5-dihydro-pyridazino[4,5-b]indol-1-one]"
5,0,"O=c1[nH]nc(-c2cc3ccccc3o2)c2[nH]c3ccccc3c12 [Example 4k, 4-Benzofuran-2-yl-2,5-dihydro-pyridazino[4,5-b]indol-1-one]"
6,4,"Cc1ccc(-c2n[nH]c(=O)c3c2[nH]c2ccccc23)o1 [Example 4e, 4-(5-Methyl-furan-2-yl)-2,5-dihydro-pyridazino[4,5-b]indol-1-one]"
7,0,"O=c1[nH]nc(-c2cc3ccccc3o2)c2[nH]c3cc4c(cc3c12)OCO4 [Example 4m, 8-Benzofuran-2-yl-6,9-dihydro-1,3-dioxa-6,7,9-triaza-cyclopenta[b]fluoren-5-one]"

# Source: patent US7732447B2, “Fused [d]pyridazin-7-ones” (Cephalon, Inc., priority 2006, dated 2010)
